Test results reported in PubChem BioAssay (NCI).
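Briefly, cells in 96-well plates were exposed to five compound concentrations for 48 h, and endpoints were estimated by linear interpolation. Abbreviation: GI50, concentration required for 50% inhibition of growth. TGI: total growth inhibition.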

What was measured:
Assay in all cases: inhibition of tumour cell growth, NCI panel, 48 h
HOP-62 NSCLC = test system: HOP-62 NSCLC
K-562 leukemia = test system: K-562 leukemia
SNB-19 CNS = test system: SNB-19 CNS
UACC-62 melanoma = test system: UACC-62 melanoma
HCT-116 colon = test system: HCT-116 colon
U251 CNS = test system: U251 CNS
RXF 393 renal = test system: RXF 393 renal
SNB-75 CNS = test system: SNB-75 CNS
HCT-15 colon = test system: HCT-15 colon
IGROV1 ovarian = test system: IGROV1 ovarian
SW-620 colon = test system: SW-620 colon
UACC-257 melanoma = test system: UACC-257 melanoma
MDA-MB-231 breast = test system: MDA-MB-231 breast
KM12 colon = test system: KM12 colon
CAKI-1 renal = test system: CAKI-1 renal
ACHN renal = test system: ACHN renal
MDA-MB-435 = test system: MDA-MB-435
OVCAR-8 ovarian = test system: OVCAR-8 ovarian
SF-539 CNS = test system: SF-539 CNS
EKVX NSCLC = test system: EKVX NSCLC
NCI-H226 lung = test system: NCI-H226 lung
OVCAR-5 ovarian = test system: OVCAR-5 ovarian
MCF7 breast = test system: MCF7 breast
RPMI-8226 leukemia = test system: RPMI-8226 leukemia
LOX IMVI melanoma = test system: LOX IMVI melanoma
COLO 205 colon = test system: COLO 205 colon
HT29 colon = test system: HT29 colon
NCI-H460 lung = test system: NCI-H460 lung
SF-295 CNS = test system: SF-295 CNS
DU-145 prostate = test system: DU-145 prostate
SK-MEL-2 melanoma = test system: SK-MEL-2 melanoma
NCI-H522 lung = test system: NCI-H522 lung
SK-MEL-5 melanoma = test system: SK-MEL-5 melanoma
UO-31 renal = test system: UO-31 renal
HL-60(TB) leukemia = test system: HL-60(TB) leukemia
A549 NSCLC = test system: A549 NSCLC
NCI-H23 lung = test system: NCI-H23 lung
SK-MEL-28 melanoma = test system: SK-MEL-28 melanoma
MALME-3M melanoma = test system: MALME-3M melanoma
SK-OV-3 ovarian = test system: SK-OV-3 ovarian
SR leukemia = test system: SR leukemia
786-0 renal = test system: 786-0 renal
M14 melanoma = test system: M14 melanoma
SN12C renal = test system: SN12C renal
PC-3 prostate = test system: PC-3 prostate
TK-10 renal = test system: TK-10 renal
MOLT-4 leukemia = test system: MOLT-4 leukemia
T-47D breast = test system: T-47D breast
HS 578T breast = test system: HS 578T breast
OVCAR-4 ovarian = test system: OVCAR-4 ovarian
NCI/ADR-RES ovarian = test system: NCI/ADR-RES ovarian
SF-268 CNS = test system: SF-268 CNS
OVCAR-3 ovarian = test system: OVCAR-3 ovarian
HOP-92 NSCLC = test system: HOP-92 NSCLC
A498 renal = test system: A498 renal
HCC-2998 colon = test system: HCC-2998 colon

## C/C(=C\COP(=O)(O)OP(=O)(O)O)CCCOCc1ccccc1
HOP-62 NSCLC
  TGI: > 100 µM
K-562 leukemia
  TGI: > 100 µM
SNB-19 CNS
  TGI: > 100 µM
UACC-62 melanoma
  TGI: > 100 µM
HCT-116 colon
  TGI: > 100 µM
U251 CNS
  TGI: > 100 µM
RXF 393 renal
  TGI: > 100 µM
SNB-75 CNS
  TGI: > 100 µM
HCT-15 colon
  TGI: > 100 µM
IGROV1 ovarian
  TGI: > 100 µM
SW-620 colon
  TGI: > 100 µM
UACC-257 melanoma
  TGI: > 100 µM
MDA-MB-231 breast
  TGI: > 100 µM
KM12 colon
  TGI: > 100 µM
CAKI-1 renal
  TGI: > 100 µM
ACHN renal
  TGI: > 100 µM
MDA-MB-435
  TGI: > 100 µM
OVCAR-8 ovarian
  TGI: > 100 µM
SF-539 CNS
  TGI: > 100 µM
EKVX NSCLC
  TGI: > 100 µM
NCI-H226 lung
  TGI: > 100 µM
OVCAR-5 ovarian
  TGI: > 100 µM
MCF7 breast
  TGI: > 100 µM
RPMI-8226 leukemia
  TGI: > 100 µM
LOX IMVI melanoma
  TGI: > 100 µM
COLO 205 colon
  TGI: > 100 µM
HT29 colon
  TGI: > 100 µM
NCI-H460 lung
  TGI: > 100 µM
SF-295 CNS
  TGI: > 100 µM
DU-145 prostate
  TGI: > 100 µM
SK-MEL-2 melanoma
  TGI: > 100 µM
NCI-H522 lung
  TGI: > 100 µM
SK-MEL-5 melanoma
  TGI: > 100 µM
UO-31 renal
  TGI: > 100 µM
HL-60(TB) leukemia
  TGI: > 100 µM
A549 NSCLC
  TGI: > 100 µM
NCI-H23 lung
  TGI: > 100 µM
SK-MEL-28 melanoma
  TGI: > 100 µM
MALME-3M melanoma
  TGI: > 100 µM
SK-OV-3 ovarian
  TGI: > 100 µM
SR leukemia
  TGI: > 100 µM
786-0 renal
  TGI: > 100 µM
M14 melanoma
  TGI: > 100 µM
SN12C renal
  TGI: > 100 µM
PC-3 prostate
  TGI: > 100 µM
TK-10 renal
  TGI: > 100 µM
MOLT-4 leukemia
  TGI: > 100 µM
T-47D breast
  TGI: > 100 µM
HS 578T breast
  TGI: > 100 µM
OVCAR-4 ovarian
  TGI: > 100 µM
NCI/ADR-RES ovarian
  TGI: > 100 µM
SF-268 CNS
  TGI: > 100 µM
OVCAR-3 ovarian
  TGI: > 100 µM

## O=C(Nc1ccc(Cl)cc1)Nc1ccc(Cl)c(C(F)(F)F)c1
HOP-62 NSCLC
  GI50: 3 µM
  TGI: 11.3 µM
K-562 leukemia
  GI50: 1.06 µM
  TGI: 2.95 µM
SNB-19 CNS
  GI50: 3.21 µM
  TGI: 12.6 µM
UACC-62 melanoma
  GI50: 2.71 µM
  TGI: 14.7 µM
HCT-116 colon
  GI50: 1.95 µM
  TGI: 5.33 µM
U251 CNS
  GI50: 2.8 µM
  TGI: 11.4 µM
SNB-75 CNS
  GI50: 1.97 µM
  TGI: 7.73 µM
HCT-15 colon
  GI50: 2.65 µM
  TGI: 11.6 µM
IGROV1 ovarian
  GI50: 4.01 µM
  TGI: 16.2 µM
SW-620 colon
  GI50: 2.93 µM
  TGI: 9.66 µM
UACC-257 melanoma
  GI50: 3.44 µM
  TGI: 11.8 µM
MDA-MB-231 breast
  GI50: 1.75 µM
  TGI: 3.91 µM
HOP-92 NSCLC
  GI50: 1.55 µM
  TGI: 5.03 µM
KM12 colon
  GI50: 2.21 µM
  TGI: 6.56 µM
CAKI-1 renal
  GI50: 2.27 µM
  TGI: 8.84 µM
ACHN renal
  GI50: 3.04 µM
  TGI: 12.1 µM
MDA-MB-435
  GI50: 2.45 µM
  TGI: 8.13 µM
OVCAR-8 ovarian
  GI50: 4.04 µM
  TGI: 18.8 µM
SF-539 CNS
  GI50: 2.61 µM
  TGI: 10.1 µM
EKVX NSCLC
  GI50: 2.48 µM
  TGI: 11 µM
A498 renal
  GI50: 2.38 µM
  TGI: 6.26 µM
OVCAR-5 ovarian
  GI50: 4.52 µM
  TGI: 14.9 µM
MCF7 breast
  GI50: 2.16 µM
  TGI: 7.85 µM
LOX IMVI melanoma
  GI50: 3.31 µM
  TGI: 11.6 µM
COLO 205 colon
  GI50: 1.63 µM
  TGI: 3.01 µM
HT29 colon
  GI50: 2.86 µM
  TGI: 10.7 µM
NCI-H460 lung
  GI50: 1.7 µM
  TGI: 6.44 µM
SF-295 CNS
  GI50: 1.97 µM
  TGI: 8.87 µM
DU-145 prostate
  GI50: 3.66 µM
  TGI: 12.4 µM
SK-MEL-2 melanoma
  GI50: 3.25 µM
  TGI: 10 µM
NCI-H522 lung
  GI50: 4.05 µM
  TGI: 29.1 µM
SK-MEL-5 melanoma
  GI50: 1.55 µM
  TGI: 2.99 µM
UO-31 renal
  GI50: 2.54 µM
  TGI: 10.2 µM
HL-60(TB) leukemia
  GI50: 1.74 µM
  TGI: 3.91 µM
A549 NSCLC
  GI50: 3.39 µM
  TGI: 15.8 µM
NCI-H23 lung
  GI50: 2.21 µM
  TGI: 11 µM
SK-MEL-28 melanoma
  GI50: 3.51 µM
  TGI: 11.9 µM
SK-OV-3 ovarian
  GI50: 2.37 µM
  TGI: 6.8 µM
786-0 renal
  GI50: 2.75 µM
  TGI: 10.7 µM
M14 melanoma
  GI50: 3.59 µM
  TGI: 12.3 µM
SN12C renal
  GI50: 2.29 µM
  TGI: 10.5 µM
HCC-2998 colon
  GI50: 3.12 µM
  TGI: 8.81 µM
PC-3 prostate
  GI50: 2.35 µM
  TGI: 10.8 µM
TK-10 renal
  GI50: 4.25 µM
  TGI: 19.2 µM
MOLT-4 leukemia
  GI50: 1.72 µM
  TGI: 4.4 µM
T-47D breast
  GI50: 1.22 µM
  TGI: 5.49 µM
HS 578T breast
  GI50: 2.68 µM
  TGI: 8.31 µM
OVCAR-4 ovarian
  GI50: 2.33 µM
  TGI: 11.4 µM
NCI/ADR-RES ovarian
  GI50: 3.07 µM
  TGI: 10.5 µM
SF-268 CNS
  GI50: 3.54 µM
  TGI: 12.2 µM
OVCAR-3 ovarian
  GI50: 1.86 µM
  TGI: 7.76 µM
